Test results: US20090178587A9, “Control of biofilms in industrial water systems” (priority 2001, published 2009)
Several values for one entry are separate records, joined by “and”; a condition that tells them apart may be missing. Equal values may be shown once. Read-outs that look alike come from different tables or passages of the source.

What was measured:
[1] = tested on: biofilms of Pseudomonas aeruginosa (ATCC 15442); assay: MBEC (minimum biofilm eradication concentration) test, 96-peg Calgary biofilm device; type: cell-based
[2] = tested on: Legionella pneumophila; conditions: 1 mg/L for 24 hours; either metal surface; cited from earlier work
[3] = tested on: 21-day old biofilms; conditions: 1 mg/L free residual; 30° C.; cited from earlier work
[4] = tested on: biofilms consisting of a consortium of Legionella, heterotrophic bacteria and amoebae; conditions: cited from earlier work
[5] = tested on: biofilm bacteria; conditions: 1 ppm residuals; cited from earlier work
[6] = tested on: biofilms of Sphaerotilus natans; conditions: dynamic tests; maximum applied dose 20 ppm; cited from earlier work
[7] = tested on: biofilm bacteria; conditions: 1.5 mg/L applied continuously for 18 hours; cited from earlier work
[8] = tested on: HPC Bacteria (planktonic and biofilm); assay: Laboratory model water system, 48-hour biocide challenge and 14-day recovery: HPC bacteria; type: cell-based
[9] = tested on: biofilm-associated Legionella; conditions: cited from earlier work
[10] = tested on: sessile bacteria; conditions: pH 9; cited from earlier work
[11] = tested on: 3-day biofilms; conditions: cited from earlier work
[12] = tested on: biofilm bacteria; conditions: cited from earlier work
[13] = 7-day biofilm, one hour contact time, average, halogen biocides as Cl2
[14] = maximum log reduction, typically 2-12 hours after biocide application
[15] = relative to control after the 14-day recovery period
[16] = 1-day biofilm, one hour contact time, average, halogen biocides as Cl2, others as active ingredient
[17] = 1-day biofilm, one hour contact time, individual determinations, halogen biocides as Cl2, others as active ingredient

## CC1(C)C(=O)N(Cl)C(=O)N1Br [BCDMH, 1-bromo-3-chloro-5,5-dimethylhydantoin]
[1]
  1-Day Biofilm MBEC, avg.: 2.5 ppm
  1-Day Biofilm MBEC, ppm: 2.5, 2.5 ppm
  7-Day Biofilm MBEC, ppm: 5, 10 ppm
[1]; [13]
  7-Day Biofilm MBEC, avg.: 7.5 ppm
[2]
  viable Legionella recovered from the biofilms: no viable Legionella were recovered
[3]
  reduction of biofilm counts on mild steel: 1.4 logs
  reduction of biofilm counts on stainless steel: 2.0 logs
[4]
  efficacy against biofilm-associated heterotrophic bacteria and Legionella: also effective but was slower acting
[5]
  log kill of biofilm bacteria: 1 log

## [Na+].[O-]Cl [Bleach, NaOCl]
[1]
  1-Day Biofilm MBEC, avg.: 3.8 ppm
  1-Day Biofilm MBEC, ppm: 5.0, 2.5 ppm
  7-Day Biofilm MBEC, avg.: 20 ppm
  7-Day Biofilm MBEC, ppm: 20, 20 ppm

## CCC1(C)C(=O)N(Cl)C(=O)N1Br (centres unmarked) [BrMEH, bromo-chloro-methylethylhydantoin]
[6]
  treatment level for biofilm control (but not eradication): 10 ppm
[5]
  log kill of biofilm bacteria: 0.7 log

## [O][Cl+][O-] [ClO2, Chlorine dioxide]
[7]
  reduction of biofilm bacteria: 99.4%

## CC1(C)C(=O)N(Br)C(=O)N1Br [DBDMH, 1-3-dibromo-5,5-dimethylhydantoin]
[1]
  1-Day Biofilm MBEC, avg.: 1.2 ppm
  1-Day Biofilm MBEC, ppm: 1.2 ppm
  7-Day Biofilm MBEC, avg.: 5 ppm
  7-Day Biofilm MBEC, ppm: 5, 5 ppm
  MBEC: 1.4 mg/L
[8]; [14]
  Log Reduction, HPC Bacteria, Biofilm: 2.7 log
  Log Reduction, HPC Bacteria, Planktonic: 3.6 log
[8]; [15]
  Log Reduction, HPC Bacteria, Biofilm: 0.4 log
  Log Reduction, HPC Bacteria, Planktonic: 0.2 log

## N#CC(Br)(Br)C(N)=O [DBNPA, Dibromonitrilopropionamide]
[1]; [16]
  1-Day Biofilm MBEC, avg.: 3.1 ppm
[1]; [17]
  1-Day Biofilm MBEC, ppm: 2.0 ppm and 4.1 ppm
[9]
  effect on levels of biofilm-associated Legionella: non detectable levels

## CCCCCCCCCCSCCN.Cl [DTEA, decylthioethaneamine hydrochloride]
[1]; [16]
  1-Day Biofilm MBEC, avg.: 100 ppm
[1]; [17]
  1-Day Biofilm MBEC, ppm: 100, 100 ppm

## O=CCCCC=O [Glutaraldehyde, glutaraldehyde]
[1]; [16]
  1-Day Biofilm MBEC, avg.: 50 ppm
[1]; [17]
  1-Day Biofilm MBEC, ppm: 50, 50 ppm
[1]; [13]
  7-Day Biofilm MBEC, avg.: ~200 ppm
[1]; 7-day biofilm, one hour contact time, individual determinations, halogen biocides as Cl2
  7-Day Biofilm MBEC, ppm: 100 ppm and > 200 ppm
[9]
  effect on levels of biofilm-associated Legionella: non detectable levels
[10]
  log reductions in sessile bacteria / biofilm counts: 2 log
[11]
  "no effect" level on biofilm removal: 20 ppm
[4]
  efficacy against biofilm-associated heterotrophic bacteria and Legionella: effective

## OO [H2O2, hydrogen peroxide]
[1]
  1-Day Biofilm MBEC, avg.: >200 ppm
  1-Day Biofilm MBEC, ppm: >100, >100 ppm
[10]
  log reductions in sessile bacteria / biofilm counts: 2 log

## OBr [HOBr, hypobromous acid]
[6]
  treatment level for biofilm control (but not eradication): 15 ppm

## OCl [HOCl, Hypochlorous acid]
[6]
  treatment level for biofilm control (but not eradication): > 20 ppm

## CC(=O)OO [Peracetic Acid, peracetic acid]
[1]; 1-day biofilm, four-hour contact time, average (est.)
  1-Day Biofilm MBEC, avg.: ~150 ppm
[1]; 1-day biofilm, four-hour contact time, individual determinations, active ingredient
  1-Day Biofilm MBEC, ppm: 100, >100 ppm

## O=S(=O)([O-])[O-].OC[P+](CO)(CO)CO.OC[P+](CO)(CO)CO [THPS]
[10]
  log reductions in sessile bacteria / biofilm counts: 2 log

## O=c1n(Cl)c(=O)n(Cl)c(=O)n1Cl [Trichlor, 1,3,5-trichloroisocyanuric acid]
[1]
  1-Day Biofilm MBEC, avg.: 1.9 ppm
  1-Day Biofilm MBEC, ppm: 2.5, 1.2 ppm
  7-Day Biofilm MBEC, avg.: 20 ppm
  7-Day Biofilm MBEC, ppm: 20, 20 ppm

## BrBr [bromine]
[9]
  effect on levels of biofilm-associated Legionella: non detectable levels
[12]
  log reductions of biofilm bacteria: ~3 log

## O=[O+][O-] [ozone]
[9]
  effect on levels of biofilm-associated Legionella: did not appear to significantly affect
